These results are taken from patent US8188098B2, “GPR119 receptor agonists” (Hoffmann-La Roche Inc., priority 2008, dated 2012).

As usually defined, the EC50 is the concentration that produces a half-maximal response. Read a high EC50 as lower potency in that assay.

The assay addresses T1, GPR119 receptor (Mesocricetus auratus, UniProt A0A1U8CD06).
T1 construct: which endogenously express the GPR119 receptor; host or cells: HIT-T15 hamster pancreatic islet cells
T1 sequence (A0A1U8CD06 1-334): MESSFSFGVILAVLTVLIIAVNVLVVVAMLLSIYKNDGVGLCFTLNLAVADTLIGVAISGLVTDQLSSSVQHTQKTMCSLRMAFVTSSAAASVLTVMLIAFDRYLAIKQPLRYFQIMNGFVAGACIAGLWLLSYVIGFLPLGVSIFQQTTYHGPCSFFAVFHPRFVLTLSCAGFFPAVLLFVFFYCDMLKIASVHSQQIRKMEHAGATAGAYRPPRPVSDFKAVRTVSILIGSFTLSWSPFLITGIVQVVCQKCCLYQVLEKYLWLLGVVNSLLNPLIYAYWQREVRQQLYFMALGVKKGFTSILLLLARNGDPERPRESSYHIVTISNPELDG
Put plainly: cAMP assay in HIT-T15 hamster pancreatic islet cells (functional agonist activity). In kind it is cell-based. The settings on record: HIT-T15 cells endogenously expressing GPR119; 30 min at 25° C.; intracellular cAMP. The gist of the method:
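HIT-T15 cells (endogenous GPR119), 9000/well, exposed to agonist 30 min at 25° C with 0.5 mM IBMX and 0.5 mg/ml BSA. Lysate cAMP measured by chemiluminescent competitive immunoassay; EC50 from curve fit.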
For `Cc1nc(-c2ccc(Oc3ncnc4c3cnn4C3CCN(C(=O)OC(C)(C)C)CC3)cc2)no1` [Example 85, 4-{4-[4-(5-Methyl-[1,2,4]oxadiazol-3-yl)-phenoxy]-pyrazolo[3,4-d]pyrimidin-1-yl}-piperidine-1-carboxylic acid tert-butyl ester], a half-maximal effect (EC50) was put at 0.55 µM.

In turn, `CC(C)(C)C(=O)N1CCC(n2ncc3c(Oc4ccc(S(C)(=O)=O)cc4)ncnc32)CC1` [Example 138, 1-{4-[4-(4-Methanesulfonyl-phenoxy)-pyrazolo[3,4-d]pyrimidin-1-yl]-piperidin-1-yl}-2,2-dimethyl-propan-1-one] displayed an EC50 of 0.78 µM.

In turn, `CC(C)(C)OC(=O)N1CCC(n2ncc3c(Oc4ccc(F)cc4)ncnc32)CC1` [Example 34, 4-[4-(4-Fluoro-phenoxy)-pyrazolo[3,4-d]pyrimidin-1-yl]-piperidine-1-carboxylic acid tert-butyl ester] showed an EC50 of 0.53 µM.

Compound `Cc1ncccc1Oc1ncnc2c1cnn2C1CCN(C(=O)OCC(C)C)CC1` [Example 107, 4-[4-(2-Methyl-pyridin-3-yloxy)-pyrazolo[3,4-d]pyrimidin-1-yl]-piperidine-1-carboxylic acid isobutyl ester] showed an EC50 of 0.19 µM.

On to `N#Cc1ccc(F)c(F)c1Oc1ncnc2c1cnn2C1CCN(C(=O)OC2CCCC2)CC1` [Example 119, 4-[4-(6-Cyano-2,3-difluoro-phenoxy)-pyrazolo[3,4-d]pyrimidin-1-yl]-piperidine-1-carboxylic acid cyclopentyl ester], for which the EC50 came out at 0.063 µM.

As to `CC(C)(C)OC(=O)N1CCC(n2ncc3c(Oc4ccc([N+](=O)[O-])cc4F)ncnc32)CC1` [Example 66, 4-[4-(2-Fluoro-4-nitro-phenoxy)-pyrazolo[3,4-d]pyrimidin-1-yl]-piperidine-1-carboxylic acid tert-butyl ester], the 50% effective concentration (EC50) worked out at 0.75 µM.

`CC(C)(C)OC(=O)N1CCC(n2ncc3c(Oc4ccc5[nH]ccc5c4)ncnc32)CC1` [Example 74, 4-[4-(1H-Indol-5-yloxy)-pyrazolo[3,4-d]pyrimidin-1-yl]-piperidine-1-carboxylic acid tert-butyl ester] gave a concentration for a half-maximal effect (EC50) of 1.9 µM.

For `CS(=O)(=O)c1ccc(Oc2ncnc3c2cnn3C2CCN(C(=O)CCc3ccccc3)CC2)cc1` [Example 146, 1-{4-[4-(4-Methanesulfonyl-phenoxy)-pyrazolo[3,4-d]pyrimidin-1-yl]-piperidin-1-yl}-3-phenyl-propan-1-one], a half-maximal effect (EC50) was put at 1 µM.

On to `CC(C)(C)OC(=O)N1CCC(n2ncc3c(Oc4cccnc4C#N)ncnc32)CC1` [Example 99, 4-[4-(2-Cyano-pyridin-3-yloxy)-pyrazolo[3,4-d]pyrimidin-1-yl]-piperidine-1-carboxylic acid tert-butyl ester], for which the half-maximal effective concentration (EC50) turned out to be 0.2 µM.

Take `CC(C)c1noc(N2CCC(n3ncc4c(Oc5ccc(S(C)(=O)=O)c(F)c5)ncnc43)CC2)n1` [Example 128, 4-(3-Fluoro-4-methanesulfonyl-phenoxy)-1-[1-(3-isopropyl-[1,2,4]oxadiazol-5-yl)-piperidin-4-yl]-1H-pyrazolo[3,4-d]pyrimidine]: a half-maximal effect (EC50) was put at 0.16 µM.

Compound `Cc1ncccc1Oc1ncnc2c1cnn2C1CCN(C(=O)OC2CCCCC2)CC1` [Example 125, 4-[4-(2-Methyl-pyridin-3-yloxy)-pyrazolo[3,4-d]pyrimidin-1-yl]-piperidine-1-carboxylic acid cyclohexyl ester] registered a half-maximal effective concentration (EC50) of 0.57 µM.

`CC(C)(C)OC(=O)N1CCC(n2ncc3c(Oc4ccccc4C#N)nc(N)nc32)CC1` [Example 174, 4-[6-Amino-4-(2-cyano-phenoxy)-pyrazolo[3,4-d]pyrimidin-1-yl]-piperidine-1-carboxylic acid tert-butyl ester] came in with an EC50 of 3.4 µM.

Take `CC(C)(C)OC(=O)N1CCC(n2ncc3c(Oc4cncc(Cl)c4)ncnc32)CC1` [Example 100, 4-[4-(5-Chloro-pyridin-3-yloxy)-pyrazolo[3,4-d]pyrimidin-1-yl]-piperidine-1-carboxylic acid tert-butyl ester]: the EC50 worked out at 1.8 µM.

For `CC(C)CCC(=O)N1CCC(n2ncc3c(Oc4ccc(S(C)(=O)=O)cc4)ncnc32)CC1` [Example 143, 1-{4-[4-(4-Methanesulfonyl-phenoxy)-pyrazolo[3,4-d]pyrimidin-1-yl]-piperidin-1-yl}-4-methylpentan-1-one], the response was half-maximal at 0.44 µM (EC50).

For `CS(=O)(=O)c1ccc(Oc2ncnc3c2cnn3C2CCN(Cc3ccc(C(F)(F)F)cc3)CC2)cc1` [Example 161, 4-(4-Methanesulfonyl-phenoxy)-1-[1-(4-trifluoromethyl-benzyl)-piperidin-4-yl]-1H-pyrazolo[3,4-d]pyrimidine], the EC50 was 0.036 µM.

Turning to `Cc1cc(=O)oc2cc(Oc3ncnc4c3cnn4C3CCN(C(=O)OC(C)(C)C)CC3)ccc12` [Example 76, 4-[4-(4-Methyl-2-oxo-2H-chromen-7-yloxy)-pyrazolo[3,4-d]pyrimidin-1-yl]-piperidine-1-carboxylic acid tert-butyl ester], the midpoint of the response, the EC50, lay at 3 µM.

In turn, `Cc1ncccc1Nc1ncnc2c1cnn2C1CCN(C(=O)OC(C)(C)C)CC1` [Example 7, 4-[4-(2-Methyl-pyridin-3-ylamino)-pyrazolo[3,4-d]pyrimidin-1-yl]-piperidine-1-carboxylic acid tert-butyl ester] returned an EC50 of 2.2 µM.

`Cc1nc(S(C)(=O)=O)ccc1Nc1ncnc2c1cnn2C1CCN(C(=O)OC(C)(C)C)CC1` [Example 8, 4-[4-(6-Methanesulfonyl-2-methyl-pyridin-3-ylamino)-pyrazolo[3,4-d]pyrimidin-1-yl]-piperidine-1-carboxylic acid tert-butyl ester] gave an EC50 of 0.76 µM.

Consider `CC(C)(C)OC(=O)N1CCC(n2ncc3c(Oc4ccc(C#N)c(F)c4)ncnc32)CC1` [Example 48, 4-[4-(4-Cyano-3-fluoro-phenoxy)-pyrazolo[3,4-d]pyrimidin-1-yl]-piperidine-1-carboxylic acid tert-butyl ester], for which the EC50 came to 0.22 µM.

`CC(C)(C)OC(=O)N1CCC(n2ncc3c(Oc4ccc(-n5cnnn5)cc4)ncnc32)CC1` [Example 83, 4-[4-(4-Tetrazol-1-yl-phenoxy)-pyrazolo[3,4-d]pyrimidin-1-yl]-piperidine-1-carboxylic acid tert-butyl ester] returned an EC50 of 1.6 µM.

`CCOc1ccc(Oc2ncnc3c2cnn3C2CCN(C(=O)OC3CCCC3)CC2)c(F)c1` [Example 117, 4-[4-(4-Ethoxy-2-fluoro-phenoxy)-pyrazolo[3,4-d]pyrimidin-1-yl]-piperidine-1-carboxylic acid cyclopentyl ester] gave a half-maximal effective concentration (EC50) of 0.17 µM.

In turn, `Cc1nnnn1-c1ccc(Oc2ncnc3c2cnn3C2CCN(C(=O)OC(C)C)CC2)cc1` [Example 26, 4-{4-[4-(5-Methyl-tetrazol-1-yl)-phenoxy]-pyrazolo[3,4-d]pyrimidin-1-yl}-piperidine-1-carboxylic acid isopropyl ester] had an EC50 of 0.95 µM.

Consider `CS(=O)(=O)c1ccc(Oc2ncnc3c2cnn3C2CCN(Cc3nccs3)CC2)cc1` [Example 169, 4-(4-Methanesulfonyl-phenoxy)-(1-thiazol-2-ylmethyl-piperidin-4-yl)-1H-pyrazolo[3,4-d]pyrimidine], for which the EC50 is 3.6 µM.
